Calls of active or inactive are those of the source. The rule behind the calls is not given here.
Experiments:
Platelet [1] = assay: Inhibition of ADP-induced Akt activation in C57BL/6J mouse platelet assessed as reduction of AKT phosphorylation at Ser473 at 0.5 to 20 uM by western blot analysis; format: cell-based; conditions: dose 0.5-20 µM, DDE = dose-dependent effect
[2] = Antiplatelet activity against ADP-induced C57BL/6J mouse platelet aggregation assessed as maximal aggregration rate at 10 uM preincubated for 10 mins followed by ADP addition relative to control; format: functional
[3] = Metabolic stability in human liver microsomes assessed as half life at 1 uM incubated upto 60 min in presence of NADPH by LC-MS/MS analysis; format: ADME, Microsome
[4] = Metabolic stability in Sprague-Dawley rat liver microsomes assessed as half life at 1 uM incubated upto 60 min in presence of NADPH by LC-MS/MS analysis; format: ADME, Microsome
[5] = Metabolic stability in CD-1 mouse liver microsomes assessed as half life at 1 uM incubated upto 60 min in presence of NADPH by LC-MS/MS analysis; format: ADME, Microsome
[6] = Metabolic stability in human liver microsomes assessed as microsomal intrinsic clearance at 1 uM incubated upto 60 min in presence of NADPH by LC-MS/MS analysis; format: ADME, Microsome; conditions: read-out: CLH
[7] = Metabolic stability in Sprague-Dawley rat liver microsomes assessed as microsomal intrinsic clearance at 1 uM incubated upto 60 min in presence of NADPH by LC-MS/MS analysis; format: ADME, Microsome; conditions: read-out: CLH
[8] = Metabolic stability in CD-1 mouse liver microsomes assessed as microsomal intrinsic clearance at 1 uM incubated upto 60 min in presence of NADPH by LC-MS/MS analysis; format: ADME, Microsome; conditions: read-out: CLH
[9] = Metabolic stability in human liver microsomes assessed as liver intrinsic clearance at 1 uM incubated upto 60 min in presence of NADPH by LC-MS/MS analysis; format: ADME, Microsome; conditions: 1 h
[10] = Metabolic stability in Sprague-Dawley rat liver microsomes assessed as liver intrinsic clearance at 1 uM incubated upto 60 min in presence of NADPH by LC-MS/MS analysis; format: ADME, Microsome; conditions: 1 h
[11] = Metabolic stability in CD-1 mouse liver microsomes assessed as liver intrinsic clearance at 1 uM incubated upto 60 min in presence of NADPH by LC-MS/MS analysis; format: ADME, Microsome; conditions: 1 h
[12] = Metabolic stability in human liver microsomes assessed as compound remaining at 1 uM measured after 60 mins in presence of NADPH by LC-MS/MS analysis; format: ADME, Microsome; conditions: read-out: Stability
[13] = Metabolic stability in Sprague-Dawley rat liver microsomes assessed as compound remaining at 1 uM measured after 60 mins in presence of NADPH by LC-MS/MS analysis; format: ADME, Microsome; conditions: read-out: Stability
[14] = Metabolic stability in CD-1 mouse liver microsomes assessed as compound remaining at 1 uM measured after 60 mins in presence of NADPH by LC-MS/MS analysis; format: ADME, Microsome; conditions: read-out: Stability
[15] = Cytotoxicity against human HUVEC cells assessed as cell vaibility at 100 uM by MTS assay; format: toxicity, cell-based; conditions: read-out: Activity
Platelet [16] = assay: Antiplatelet activity against ADP-induced C57BL/6J mouse platelet aggregation assessed as reduction in integrin alphaIIbbeta3 surface levels by measuring increase median fluorescence intensities at 10 uM incubated for 10 min by flow cytometry analysis; format: functional, cell-based
Platelet [17] = assay: Antiplatelet activity against ADP-induced C57BL/6J mouse platelet aggregation assessed as reduction in P-selectin surface levels by measuring increase median fluorescence intensities at 10 uM incubated for 10 min by flow cytometry analysis; format: functional, cell-based
Platelet [18] = assay: Inhibition of ADP-induced Akt activation in C57BL/6J mouse platelet assessed as reduction of AKT phosphorylation at Ser473 by western blot analysis; format: cell-based
Mus musculus [19] = assay: Antiplatelet activity against ADP-induced C57BL/6J mouse platelet aggregation assessed as reduction in P-selectin surface levels at 100 mg/kg, po measured after 2 weeks by flow cytometry analysis; format: functional, organism-based
Mus musculus [20] = assay: Antiplatelet activity against ADP-induced C57BL/6J mouse platelet aggregation assessed as reduction in integrin alphaIIbbeta3 surface level at 100 mg/kg, po measured after 2 weeks by flow cytometry analysis; format: functional, organism-based
Platelet [21] = assay: Inhibition of ADP-induced Akt activation in C57BL/6J mouse platelets assessed as reduction in phosphorylation Akt level at Ser473 at 100 mg/kg, po measured after 2 weeks by western blot analysis; format: organism-based
Mus musculus [22] = assay: Antithrombotic activity in BALB/c mouse model of carrageenan-induced thrombus formation assessed as inhibition of thrombosis rate in tail at 100 mg/kg, iv measured after 14 days; format: functional, organism-based; conditions: time 14.0 day
[23] = Antiplatelet activity against ADP-induced C57BL/6J mouse platelet aggregation assessed as inhibition of platelet aggregation at 10 uM preincubated for 10 mins followed by ADP addition relative to control; format: functional; set-up: scale not given: the % may be the effect or the level left
Mus musculus [24] = assay: Antithrombotic activity in BALB/c mouse model of carrageenan-induced thrombus formation assessed as reduced thrombus area in tail at 100 mg/kg, iv measured after 14 days by H and E staining based assay; format: functional, organism-based; conditions: time 14.0 day
Platelet [25] = assay: Antiplatelet activity against ADP-induced C57BL/6J mouse platelet aggregation assessed as reduction on platelet aggregation at 2.5 to 10 uM preincubated for 10 mins followed by ADP addition; format: functional, cell-based; conditions: dose 2.5-10 µM, DDE = dose-dependent effect
[26] = Acute toxicity in po dosed Kunming mouse assessed as lethal dose measured after 14 days; format: organism-based; conditions: in vivo, time 14 day
[27] = Acute toxicity in Kunming mouse assessed as effect on glutamic oxalacetic transaminase at 250 to 1000 mg/kg, po measured after 14 days; format: organism-based; conditions: in vivo, 336 h, dose 250-1000 mg/kg, time 14 day
[28] = Acute toxicity in Kunming mouse assessed as effect on glutamic pyruvic transaminase at 250 to 1000 mg/kg, po measured after 14 days; format: organism-based; conditions: in vivo, 336 h, dose 250-1000 mg/kg, time 14 day
[29] = Acute toxicity in Kunming mouse assessed as effect on blood urea nitrogen at 250 to 1000 mg/kg, po measured after 14 days; format: organism-based; conditions: in vivo, 336 h, dose 250-1000 mg/kg, time 14 day
[30] = Acute toxicity in Kunming mouse assessed as effect on creatine at 250 to 1000 mg/kg, po measured after 14 days; format: organism-based; conditions: in vivo, 336 h, dose 250-1000 mg/kg, time 14 day
Mus musculus [31] = assay: Antiplatelet activity against ADP-induced C57BL/6J mouse platelet aggregation assessed as inhibition of platelet aggregation at 100 mg/kg, po measured after 2 weeks; format: functional, organism-based
Lung [32] = assay: Antithrombotic activity in BALB/c mouse model of carrageenan-induced thrombus formation assessed as reduced thrombus formation in lung at 100 mg/kg, iv measured after 14 days by H and E staining based assay; format: functional, organism-based; conditions: time 14.0 day
Mus musculus [33] = assay: Antithrombotic activity in BALB/c mouse model of carrageenan-induced thrombus formation assessed as reduced serum P-selectin level at 100 mg/kg, iv measured after 14 days by ELISA; format: functional, organism-based; conditions: time 14.0 day
[34] = Binding affinity to sensorchip-immobilized PI3K (unknown origin) by surface plasmon resonance analysis; set-up: species or system Homo sapiens
Platelet [35] = assay: Antiplatelet activity against ADP-induced C57BL/6J mouse platelet aggregation assessed as increase in VASP phosphorylation level at 0.5 to 20 uM by western blotting analysis; format: functional, cell-based; conditions: dose 0.5-20 µM
Mus musculus [36] = assay: Antiplatelet activity against ADP-induced C57BL/6J mouse platelet aggregation assessed as reduction in integrin alphaIIbbeta3 surface level at 20 mg/kg, po measured after 2 weeks by flow cytometry analysis; format: functional, organism-based
Mus musculus [37] = assay: Antiplatelet activity against ADP-induced C57BL/6J mouse platelet aggregation assessed as reduction in P-selectin surface levels at 20 mg/kg, po measured after 2 weeks by flow cytometry analysis; format: functional, organism-based
Platelet [38] = assay: Inhibition of ADP-induced Akt activation in C57BL/6J mouse platelets assessed as reduction in phosphorylation Akt level at Ser473 at 20 mg/kg, po measured after 2 weeks by western blot analysis; format: organism-based
Mus musculus [39] = assay: Antiplatelet activity against ADP-induced C57BL/6J mouse platelet aggregation assessed as inhibition of platelet aggregation at 20 mg/kg, po measured after 2 weeks; format: functional, organism-based
Mus musculus [40] = assay: Antithrombotic activity in BALB/c mouse model of carrageenan-induced thrombus formation assessed as inhibition of thrombosis rate in tail at 20 mg/kg, iv measured after 14 days; format: functional, organism-based; conditions: time 14.0 day
Lung [41] = assay: Antithrombotic activity in BALB/c mouse model of carrageenan-induced thrombus formation assessed as reduced thrombus formation in lung at 20 mg/kg, iv measured after 14 days by H and E staining based assay; format: functional, organism-based; conditions: time 14.0 day
Mus musculus [42] = assay: Antithrombotic activity in BALB/c mouse model of carrageenan-induced thrombus formation assessed as reduced serum P-selectin level at 20 mg/kg, iv measured after 14 days by ELISA; format: functional, organism-based; conditions: time 14.0 day

CCCOc1c(OC)ccc2cc3[n+](cc12)CCc1cc(OC)c(OC)cc1-3.[Br-]
inhibition (Platelet [1]): Dde
%max [2]: 26.9%
half-life at 1 µM [3]: > 2.42 h
half-life at 1 µM [4]: > 2.42 h
half-life at 1 µM [5]: 0.745 h
microsomal CLint at 1 µM [6]: < 9.6 µL/min/mg
microsomal CLint at 1 µM [7]: < 9.6 µL/min/mg
microsomal CLint at 1 µM [8]: 31 µL/min/mg
CLH [9]: < 8.6 mL/min/kg
CLH [10]: < 17.3 mL/min/kg
CLH [11]: 123 mL/min/kg
remaining at 1 h, 1 µM [12]: 117%
remaining at 1 h, 1 µM [13]: 79%
remaining at 1 h, 1 µM [14]: 39%
viability at 100 µM [15]: 90%
Activity (Platelet [16]): Active
Activity (Platelet [17]): Active
inhibition (Platelet [18]): Active
Activity (Mus musculus [19]): Active
Activity (Mus musculus [20]): Active
inhibition (Platelet [21]): Active
inhibition (Mus musculus [22]): Active
Activity [23]: 37.8%
inhibition (Mus musculus [24]): Active
Activity (Platelet [25]): Dde
LD50 at 336 h [26]: 1000 mg/kg
Activity [27]: Non-Toxic
Activity [28]: Non-Toxic
Activity [29]: Non-Toxic
Activity [30]: Non-Toxic
Activity (Mus musculus [31]): Active
Activity (Lung [32]): Active
Activity (Mus musculus [33]): Active
Kd [34]: 25.5 µM
Activity (Platelet [35]): Active

CC(=O)Oc1ccccc1C(=O)O [ASPIRIN]
Activity (Mus musculus [36]): Active
%max [2]: 26.4%
inhibition (Platelet [18]): Active
Activity (Mus musculus [37]): Active
inhibition (Platelet [38]): Active
Activity (Mus musculus [39]): Active
Activity (Mus musculus [40]): Active
Activity (Lung [41]): Active
Activity (Mus musculus [42]): Active
